{"source": "patent US11800868B2", "about": "“Isoflavonoid compounds and use thereof” (Novozymes BioAg A/S, priority 2004, dated 2023)", "key": {"tomato": {"tested_on": "tomato", "test": "Signal applied to tomato seedling roots transplanted into soil inoculated with soybean rhizobia (field)"}, "potato": {"tested_on": "potato", "test": "Growth promotion of potato tubers with signals, field", "assay_type": "in vivo", "experimental": "Notes: • 1. Microtubers (cv. Bintje, tuber size from 0.5-0.7 g) were soaked in each test solution overnight at 25° C. in the incubator. Treatment rate was 50 ml/treatment, and 50 ml water as control. • 2. […] Treated potato tubers were planted in soil 10-15 cm deep, 10 tubers in 10 M^2 plot and supplied 500 ml of water to each tuber in ground after planting. • 4. Planted date: Aug. 20, 2004 and harvested date: Oct. 15, 2004."}}, "data": [{"smiles": "O=c1c(-c2ccc(O)cc2)coc2cc(O)cc(O)c12", "note": "[genistein]", "values": [{"measurement": "Fruit/plot", "setting": "tomato; 100 ml at 1 μM/plant, Early", "result": 67.75}, {"measurement": "Fruit/plot % vs ctrl", "setting": "tomato; 100 ml at 1 μM/plant, Early", "result": 16.81, "unit": "%"}, {"measurement": "Kg/plot", "setting": "tomato; 100 ml at 1 μM/plant, Early", "result": 12.02, "unit": "Kg/plot"}, {"measurement": "Kg/plot % vs ctrl", "setting": "tomato; 100 ml at 1 μM/plant, Early", "result": 15.47, "unit": "%"}, {"measurement": "Fruit/plot", "setting": "tomato; 100 ml at 1 μM/plant, Normal", "result": 241.5}, {"measurement": "Fruit/plot % vs ctrl", "setting": "tomato; 100 ml at 1 μM/plant, Normal", "result": 10.27, "unit": "%"}, {"measurement": "Kg/plot", "setting": "tomato; 100 ml at 1 μM/plant, Normal", "result": 27.10, "unit": "Kg/plot"}, {"measurement": "Kg/plot % vs ctrl", "setting": "tomato; 100 ml at 1 μM/plant, Normal", "result": 5.86, "unit": "%"}, {"measurement": "Fruit/plot", "setting": "tomato; 100 ml at 10 μM/plant, Early", "result": 66.25}, {"measurement": "Fruit/plot % vs ctrl", "setting": "tomato; 100 ml at 10 μM/plant, Early", "result": 14.22, "unit": "%"}, {"measurement": "Kg/plot", "setting": "tomato; 100 ml at 10 μM/plant, Early", "result": 11.64, "unit": "Kg/plot"}, {"measurement": "Kg/plot % vs ctrl", "setting": "tomato; 100 ml at 10 μM/plant, Early", "result": 11.82, "unit": "%"}, {"measurement": "Fruit/plot", "setting": "tomato; 100 ml at 10 μM/plant, Normal", "result": 217.75}, {"measurement": "Fruit/plot % vs ctrl", "setting": "tomato; 100 ml at 10 μM/plant, Normal", "result": "−0.57", "unit": "%"}, {"measurement": "Kg/plot", "setting": "tomato; 100 ml at 10 μM/plant, Normal", "result": 25.91, "unit": "Kg/plot"}, {"measurement": "Kg/plot % vs ctrl", "setting": "tomato; 100 ml at 10 μM/plant, Normal", "result": 1.21, "unit": "%"}, {"measurement": "Fruit/plot", "setting": "tomato; 100 ml at 50 μM/plant, Early", "result": 71}, {"measurement": "Fruit/plot % vs ctrl", "setting": "tomato; 100 ml at 50 μM/plant, Early", "result": 22.41, "unit": "%"}, {"measurement": "Kg/plot", "setting": "tomato; 100 ml at 50 μM/plant, Early", "result": 12.85, "unit": "Kg/plot"}, {"measurement": "Kg/plot % vs ctrl", "setting": "tomato; 100 ml at 50 μM/plant, Early", "result": 23.44, "unit": "%"}, {"measurement": "Fruit/plot", "setting": "tomato; 100 ml at 50 μM/plant, Normal", "result": 198.5}, {"measurement": "Fruit/plot % vs ctrl", "setting": "tomato; 100 ml at 50 μM/plant, Normal", "result": "−9.36", "unit": "%"}, {"measurement": "Kg/plot", "setting": "tomato; 100 ml at 50 μM/plant, Normal", "result": 25.77, "unit": "Kg/plot"}, {"measurement": "Kg/plot % vs ctrl", "setting": "tomato; 100 ml at 50 μM/plant, Normal", "result": 0.66, "unit": "%"}, {"measurement": "tuber size", "setting": "potato; 300-500 μM", "result": "larger tuber size"}, {"measurement": "potato tuber yield increase over control", "setting": "potato; microtubers soaked in 300 μM solution overnight", "result": "up to 17.7%"}]}]}
